Earlier results as cited in paper PMC9054008 (Science Advances, 2022).

Target: I-Ab (Mus musculus, UniProt P14434+P14483)
Sequence (P14434 whole entry, looked up): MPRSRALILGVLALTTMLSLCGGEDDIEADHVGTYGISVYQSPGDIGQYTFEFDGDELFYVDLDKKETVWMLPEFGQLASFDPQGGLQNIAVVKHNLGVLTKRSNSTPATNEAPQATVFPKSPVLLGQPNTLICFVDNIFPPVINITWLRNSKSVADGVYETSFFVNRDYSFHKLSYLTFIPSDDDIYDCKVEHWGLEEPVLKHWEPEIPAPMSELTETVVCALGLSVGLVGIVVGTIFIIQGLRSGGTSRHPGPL
Sequence (P14483 whole entry, looked up): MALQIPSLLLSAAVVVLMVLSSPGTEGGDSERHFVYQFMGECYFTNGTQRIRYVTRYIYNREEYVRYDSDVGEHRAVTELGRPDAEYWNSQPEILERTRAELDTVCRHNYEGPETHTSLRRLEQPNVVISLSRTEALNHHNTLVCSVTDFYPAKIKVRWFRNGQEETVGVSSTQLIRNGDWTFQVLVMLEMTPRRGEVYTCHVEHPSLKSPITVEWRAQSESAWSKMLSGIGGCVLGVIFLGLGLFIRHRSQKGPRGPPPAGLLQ
Conditions: cited from earlier work
For NSLILLECFVRSSPA, the IC50 is given as 6.03 µM.
In the case of SGDAMARNISSRTLE, the IC50 is given as 5.34 µM.
In the case of TKKSIKEIASSISRL, the IC50 is given as 3.77 µM.
In the case of RHIVGKPCPKPHRLN, the IC50 is given as 8.7 µM.
For KVFNTRRNTLLFLDL, the IC50 is given as 4.62 µM.
For MGQLISFFGEIPSII, the IC50 is listed as 9.64 µM.
For MDLADLFNAQPGLTS, the IC50 is listed as 5.78 µM.
In the case of ILKGVINIWGSGLLQ, the IC50 is listed as 7.27 µM.
In the case of EEALNVALAVVTLLA, the IC50 is listed as 2.73 µM.
For IEDAKRMIAISAKVA, the IC50 is given as 6.99 µM.
